Literature values, collected in patent US10160759B2, “Hydroxyethyl sulfonate of cyclin-dependent protein kinase inhibitor, crystalline form thereof and preparation method therefor” (Jiangsu Hengrui Medicine Co., Ltd., priority 2015, dated 2018).

Conditions: patients, clinical trial NCT00721409

SMILES: N#Cc1ccc(C(c2ccc(C#N)cc2)n2cncn2)cc1 [letrozole]
- progression-free survival (PFS): 7.5 months
